Consider 11 molecules from ChEMBL document CHEMBL1201862, “PubChem BioAssay data set” (2004).

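Exposure lasted 48 hours, with cells grown in 96-well plates and compounds tested at five concentrations. The concentration for 50% growth inhibition is given as GI50.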 Active and inactive are the calls of the source. No stated cut-off is given here; in the data, active = GI50 up to about 1.1 µM and inactive = higher.

Test systems include A498; BT-549; HCC 2998; HCT-116; LOX IMVI; M14; MDA-MB-231; MDA-N; NCI-H23; NCI-H460; OVCAR-3; OVCAR-4; OVCAR-5; RXF 393; SF-539; SNB-75; SW-620; UACC-257; UACC-62.
Common to all, as to assay: inhibition of tumour cell growth, NCI panel, 48 h

Regarding `Cc1ccc(S(=O)(=O)Nc2cc(O)nc3c2CCC3)cc1`, the GI50 in the experiment on A498, in the experiment with BT-549, in the experiment with HCC 2998, in the experiment on HCT-116, in the experiment on LOX IMVI and with M14 was > 100 µM (inactive) each time. In addition, the GI50 in the experiment on MDA-MB-231 was > 100 µM (inactive); in the experiment with MDA-N, > 100 µM (inactive); in the experiment with NCI-H23, > 100 µM (inactive); with NCI-H460, > 100 µM (inactive); with OVCAR-3 it was > 100 µM (inactive); in the experiment with OVCAR-4, 57.1 µM (inactive). Besides, the GI50 in the experiment on OVCAR-5, in the experiment on RXF 393, in the experiment on SF-539, with SNB-75, in the experiment on SW-620 and with UACC-257 was > 100 µM (inactive) in each case. Moreover, the GI50 in the experiment on UACC-62 was > 100 µM (inactive).
For the molecule `Nc1cccc2nsnc12`, the GI50 was > 100 µM (inactive) with A498; > 100 µM (inactive) in the experiment with BT-549; > 84.3 µM (inactive) in the experiment on HCC 2998; > 100 µM (inactive) with HCT-116; > 53.1 µM (inactive) in the experiment on LOX IMVI; > 83.9 µM (inactive) in the experiment with M14. Further, the GI50 was > 100 µM (inactive) in the experiment on MDA-MB-231; 49.8 µM (inactive) with MDA-N; > 100 µM (inactive) in the experiment with NCI-H23; > 84.1 µM (inactive) in the experiment with NCI-H460; > 94.8 µM (inactive) with OVCAR-3; > 100 µM (inactive) in the experiment on OVCAR-4. The GI50 was > 100 µM (inactive) in the experiment on OVCAR-5; > 100 µM (inactive) in the experiment with RXF 393; > 100 µM (inactive) in the experiment on SF-539; 53.8 µM (inactive) in the experiment on SNB-75; > 100 µM (inactive) in the experiment on SW-620; > 100 µM (inactive) in the experiment on UACC-257. Besides, the GI50 in the experiment with UACC-62 was 48.6 µM (inactive).
On to `CCOC(=O)c1cccc(/N=N/c2nc[nH]c2/C=C/C(=O)OC)c1`, for which the GI50 was 22.6 µM (inactive) in the experiment with A498; 42.6 µM (inactive) in the experiment on BT-549; 11 µM (inactive) with HCC 2998; 4.17 µM (inactive) in the experiment with HCT-116; 7.43 µM (inactive) with LOX IMVI; 13.3 µM (inactive) with M14. Besides, the GI50 is 4.39 µM (inactive) in the experiment on MDA-MB-231; 28.4 µM (inactive) in the experiment on MDA-N; 36.3 µM (inactive) with NCI-H23; 16.5 µM (inactive) with NCI-H460; 3.15 µM (inactive) in the experiment with OVCAR-3; 6.58 µM (inactive) in the experiment with OVCAR-4. Also, the GI50 is 76.6 µM (inactive) in the experiment with OVCAR-5; 16.4 µM (inactive) with RXF 393; 7.14 µM (inactive) in the experiment on SF-539; 18.5 µM (inactive) with SNB-75; 6.47 µM (inactive) in the experiment with SW-620; 12.9 µM (inactive) with UACC-257. In addition, the GI50 in the experiment with UACC-62 was 23.6 µM (inactive).
Take `CN(C)C(=O)C(NCCO)c1ccccc1` (configuration not stated): the GI50 in the experiment on A498 is > 100 µM (inactive); with BT-549, > 100 µM (inactive); with HCC 2998 it was > 100 µM (inactive); in the experiment on HCT-116, 53.7 µM (inactive); with LOX IMVI, > 100 µM (inactive); in the experiment on M14, > 100 µM (inactive). For the same molecule, the GI50 in the experiment on MDA-MB-231 was > 100 µM (inactive); in the experiment on MDA-N it was > 100 µM (inactive); in the experiment with NCI-H23, 83 µM (inactive); with NCI-H460, > 100 µM (inactive); in the experiment with OVCAR-3, 62.1 µM (inactive); with OVCAR-4, > 100 µM (inactive). Moreover, the GI50 in the experiment with OVCAR-5 was > 100 µM (inactive); in the experiment on RXF 393, > 100 µM (inactive); with SF-539 it was > 100 µM (inactive); with SNB-75, > 100 µM (inactive); in the experiment with SW-620, > 100 µM (inactive); in the experiment on UACC-257, 48.3 µM (inactive). The GI50 in the experiment with UACC-62 was 61.2 µM (inactive).
Turning to `O=C(N/N=C\c1c(O)ccc2ccccc12)c1ccncc1`, the GI50 in the experiment on A498 is 2.21 µM (inactive); in the experiment on BT-549 it was 0.927 µM (active); in the experiment on HCC 2998, > 11.4 µM (inactive); in the experiment on HCT-116, 0.191 µM (active); with LOX IMVI, 0.301 µM (active); in the experiment on M14, 0.474 µM (active). Moreover, the GI50 was 0.254 µM (active) in the experiment with MDA-MB-231; 1.33 µM (inactive) in the experiment on MDA-N; 1.53 µM (inactive) with NCI-H23; 1.22 µM (inactive) in the experiment with OVCAR-3; 0.237 µM (active) in the experiment with OVCAR-4; > 6.85 µM (inactive) in the experiment with OVCAR-5. In addition, the GI50 with RXF 393 is 0.383 µM (active); in the experiment with SF-539, 0.675 µM (active); in the experiment on SNB-75, 2.75 µM (inactive); in the experiment on SW-620 it was 0.769 µM (active); in the experiment with UACC-257 it was 1.22 µM (inactive); in the experiment with UACC-62 it was 0.467 µM (active).
`CCN(C(C)=O)c1cnc(/C=N/NC(N)=S)c2ccccc12`: the GI50 with A498 is 19.8 µM (inactive); with BT-549, 5 µM (inactive); with HCC 2998, 11 µM (inactive); in the experiment on HCT-116 it was 2.67 µM (inactive); in the experiment with LOX IMVI, 1.38 µM (inactive); with M14, 2.58 µM (inactive). The GI50 with MDA-MB-231 is 18.6 µM (inactive); with MDA-N it was 7.01 µM (inactive); in the experiment on NCI-H23 it was 3.36 µM (inactive); with NCI-H460 it was 1.5 µM (inactive); with OVCAR-3 it was 2.58 µM (inactive); with OVCAR-4, 9.31 µM (inactive). In addition, the GI50 in the experiment on OVCAR-5 is > 20 µM (inactive); in the experiment with RXF 393, 17.9 µM (inactive); in the experiment with SF-539, 2.93 µM (inactive); in the experiment with SNB-75 it was 18.7 µM (inactive); in the experiment on SW-620, 5.68 µM (inactive); in the experiment on UACC-257, 30.1 µM (inactive). Also, in the experiment with UACC-62, the GI50 is 3.3 µM (inactive).
`C=C(Cl)C(C)(Cl)CCC(Cl)C(C)(C)Cl` (configuration not stated): the GI50 in the experiment on A498 was > 100 µM (inactive); with BT-549, > 100 µM (inactive); in the experiment with HCC 2998, > 100 µM (inactive); in the experiment with HCT-116, 35.1 µM (inactive); in the experiment with LOX IMVI, 18.2 µM (inactive); with M14 it was 70.8 µM (inactive). The GI50 in the experiment on MDA-MB-231 is 32.7 µM (inactive); in the experiment on MDA-N, 44.2 µM (inactive); in the experiment with NCI-H23, 83.2 µM (inactive); in the experiment with NCI-H460, 78.9 µM (inactive); in the experiment on OVCAR-3, 46 µM (inactive); in the experiment with OVCAR-4, 53.7 µM (inactive). Further, the GI50 in the experiment with OVCAR-5 was > 100 µM (inactive); in the experiment on RXF 393 it was 35.1 µM (inactive); in the experiment on SF-539, > 100 µM (inactive); in the experiment with SNB-75, 41.9 µM (inactive); in the experiment on SW-620, 51.6 µM (inactive); in the experiment on UACC-257, 29.4 µM (inactive).
In the case of `CSC1=C(c2ccc(Cl)cc2)SC(N2CCCCC2)N1c1ccc([N+](=O)[O-])cc1` (configuration not stated), the GI50 with A498 was 19 µM (inactive); in the experiment on BT-549, 27.3 µM (inactive); in the experiment on HCC 2998, 41.9 µM (inactive); in the experiment with HCT-116, 23 µM (inactive); in the experiment with LOX IMVI, 30.6 µM (inactive); in the experiment with M14 it was 18.5 µM (inactive). In addition, the GI50 in the experiment on MDA-MB-231 is 27.1 µM (inactive); with MDA-N it was 39.4 µM (inactive); in the experiment with NCI-H23, 23 µM (inactive); in the experiment on NCI-H460, 23.6 µM (inactive); in the experiment with OVCAR-3, 21.8 µM (inactive); in the experiment with OVCAR-4, 23.3 µM (inactive). Besides, the GI50 in the experiment with OVCAR-5 was 28 µM (inactive); with RXF 393, > 100 µM (inactive); in the experiment on SF-539 it was 21.3 µM (inactive); in the experiment with SNB-75, 26.2 µM (inactive); in the experiment on SW-620, 38.7 µM (inactive); in the experiment with UACC-257, 24.8 µM (inactive). Also, the GI50 with UACC-62 was 17.5 µM (inactive).
Consider `CC[C@@]1(O)C(=O)OCc2c1cc1n(c2=O)Cc2c-1nc1ccccc1c2/C=N\NC(=O)C(N)Cc1c[nH]cn1` (some centres not stated), for which the GI50 in the experiment with A498 was 0.857 µM (active); in the experiment on BT-549 it was 3.45 µM (inactive); with HCC 2998, 1.51 µM (inactive); in the experiment with HCT-116 it was 0.43 µM (active); in the experiment with LOX IMVI, 0.131 µM (active); in the experiment with M14, 0.324 µM (active). Besides, the GI50 is 3.4 µM (inactive) with MDA-MB-231; 1.9 µM (inactive) with MDA-N; 0.111 µM (active) in the experiment on NCI-H23; 0.0832 µM (active) with NCI-H460; 3.95 µM (inactive) in the experiment with OVCAR-3; 4.41 µM (inactive) in the experiment with OVCAR-4. Also, the GI50 is 3.56 µM (inactive) with OVCAR-5; 0.861 µM (active) in the experiment on RXF 393; 0.0528 µM (active) with SF-539; 0.067 µM (active) with SNB-75; 0.148 µM (active) in the experiment with SW-620; 2.68 µM (inactive) in the experiment with UACC-257. Besides, the GI50 in the experiment with UACC-62 was 0.0723 µM (active).
For the molecule `CCOP(=O)(OCC)/C(C#N)=C/c1c(C)[nH]c2ccccc12`, the GI50 with A498, in the experiment with BT-549, in the experiment on HCC 2998, in the experiment on HCT-116, with LOX IMVI and in the experiment with M14 was > 100 µM (inactive) each time. Further, the GI50 with MDA-MB-231, with MDA-N, in the experiment with NCI-H23, in the experiment on NCI-H460, with OVCAR-3 and in the experiment with OVCAR-4 was > 100 µM (inactive) in each case. Also, the GI50 in the experiment on OVCAR-5, in the experiment with RXF 393, in the experiment with SF-539, with SNB-75, with SW-620 and in the experiment on UACC-257 was > 100 µM (inactive) each time. The GI50 in the experiment with UACC-62 was > 100 µM (inactive).
`COc1cc2ccccc2oc1=O`: the GI50 with A498 was > 100 µM (inactive); in the experiment on BT-549 it was 19.8 µM (inactive); in the experiment on HCC 2998, 78.2 µM (inactive); in the experiment with HCT-116, > 100 µM (inactive); with LOX IMVI it was > 100 µM (inactive); in the experiment on M14 it was 81.7 µM (inactive). Moreover, the GI50 is > 100 µM (inactive) in the experiment on MDA-MB-231; > 100 µM (inactive) in the experiment with MDA-N; 94.2 µM (inactive) with NCI-H23; 45.5 µM (inactive) in the experiment with NCI-H460; 74.5 µM (inactive) with OVCAR-3; > 100 µM (inactive) in the experiment on OVCAR-4. Moreover, the GI50 was > 100 µM (inactive) with OVCAR-5; 0.33 µM (active) in the experiment with RXF 393; > 100 µM (inactive) in the experiment with SF-539; 57.3 µM (inactive) with SNB-75; > 100 µM (inactive) in the experiment on SW-620; > 100 µM (inactive) with UACC-257. In the experiment with UACC-62, the GI50 is 24 µM (inactive).
